Measurements as given in ChEMBL document CHEMBL3879881, “Substituted pyrazolyl compounds for the treatment of inflammation” (2005).

target: T1, Inhibitor of nuclear factor kappa-B kinase subunit beta (Homo sapiens, UniProt O14920); assay: Inhibition of human recombinant C-terminal FLAG-epitope-tagged IKK2 expressed in baculovirus using biotinylated IkappaBalpha peptide as substrate assessed as decrease in [gamma-33P]-ATP incorporation in substrate after 30 mins by scintillation counting method
T1 sequence (O14920 whole entry): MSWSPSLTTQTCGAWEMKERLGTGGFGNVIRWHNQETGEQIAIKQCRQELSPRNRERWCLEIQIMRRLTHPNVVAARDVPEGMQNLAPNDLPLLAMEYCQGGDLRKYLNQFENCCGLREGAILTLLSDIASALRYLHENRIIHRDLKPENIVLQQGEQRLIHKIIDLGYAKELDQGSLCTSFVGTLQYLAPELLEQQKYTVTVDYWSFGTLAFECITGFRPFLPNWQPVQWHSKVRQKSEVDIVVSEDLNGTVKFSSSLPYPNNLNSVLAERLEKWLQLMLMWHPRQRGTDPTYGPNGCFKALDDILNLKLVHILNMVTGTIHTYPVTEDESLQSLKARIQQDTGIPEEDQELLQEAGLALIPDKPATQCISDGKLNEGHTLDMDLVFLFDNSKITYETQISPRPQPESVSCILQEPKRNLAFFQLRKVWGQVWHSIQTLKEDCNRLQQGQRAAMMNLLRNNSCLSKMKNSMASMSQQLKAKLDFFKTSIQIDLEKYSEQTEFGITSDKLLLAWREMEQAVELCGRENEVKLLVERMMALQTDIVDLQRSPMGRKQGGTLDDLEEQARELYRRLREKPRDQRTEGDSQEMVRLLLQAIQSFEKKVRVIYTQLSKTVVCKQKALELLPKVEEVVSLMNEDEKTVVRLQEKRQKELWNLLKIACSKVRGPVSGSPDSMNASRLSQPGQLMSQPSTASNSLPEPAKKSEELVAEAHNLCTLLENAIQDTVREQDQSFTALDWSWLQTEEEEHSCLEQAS

Row | SMILES | IC50 [µM]
1 | CN(C)C(=O)/C=C/c1ccc(-n2nc(C(N)=O)c3c2-c2cc(NS(C)(=O)=O)ccc2CC3)cc1 | 1 to 10
2 | NC(=O)c1nn(-c2ccc(S(N)(=O)=O)cc2)c2c1CCc1ccc(NS(=O)(=O)c3ccc(F)cc3)cc1-2 | 1 to 10
3 | CCCS(=O)(=O)c1ccc(-n2nc(C(N)=O)c3c2-c2cc(NS(C)(=O)=O)ccc2CC3)cc1 | 1 to 10
4 | NC(=O)c1nn(-c2ccc(F)cc2)c2c1CCc1ccc(NC(=O)c3cc(CN4CCOCC4)ncc3Cl)cc1-2 | ≤ 1
5 | CS(=O)(=O)c1ccc(-n2nc(C(N)=O)c3c2-c2cc(NC(=O)c4cc(S(C)(=O)=O)ccc4Cl)ccc2CC3)cc1 | ≤ 1
6 | NC(=O)c1nn(-c2ccncc2)c2c1CCc1ccc(NC(=O)c3cc(Cl)ncc3Cl)cc1-2 | ≤ 1
7 | NC(=O)c1nn(-c2ccc(F)cc2)c2c1CCc1ccc(NC(=O)c3ccncc3)cc1-2 | 1 to 10
8 | NC(=O)c1nn(-c2ccc(F)cc2)c2c1CCc1ccc(NC(=O)c3ccnc(N4CCOCC4)c3)cc1-2 | ≤ 1
9 | CC(C)S(=O)(=O)Nc1ccc2c(c1)-c1c(c(C(N)=O)nn1-c1ccc(S(N)(=O)=O)cc1)CC2 | 1 to 10
10 | NC(=O)c1nn(-c2cccc(O)c2)c2c1CCc1ccc(NC(=O)c3cc(N)ccc3Cl)cc1-2 | ≤ 1
11 | CCCS(=O)(=O)c1ccc(-n2nc(C(N)=O)c3c2-c2cc(N)ccc2CC3)cc1 | 1 to 10
12 | Cc1cccc(-n2nc(C(N)=O)c3c2-c2cc(NC(=O)c4ccccc4Cl)ccc2CC3)c1 | ≤ 1
13 | NC(=O)c1nn(-c2ccc(O)cc2)c2c1CCc1ccc(NC(=O)c3cc([N+](=O)[O-])ccc3Cl)cc1-2 | ≤ 1
14 | CN(C)CCOc1ccc(Cl)c(C(=O)Nc2ccc3c(c2)-c2c(c(C(N)=O)nn2-c2ccc4c(c2)OCO4)CC3)c1 | 1 to 10
15 | NC(=O)c1nn(-c2cccc(F)c2)c2c1CCc1ccc(NC(=O)c3cccc(F)c3F)cc1-2 | 1 to 10
16 | NC(=O)c1nn(-c2ccc(S(N)(=O)=O)cc2)c2c1CCc1ccc(NC(=O)c3cccnc3)cc1-2 | ≤ 1
17 | NC(=O)c1nn(-c2ccc(NC(=O)COCc3ccccc3)cc2)c2c1CCc1ccc(NC(=O)c3ccccc3Cl)cc1-2 | 1 to 10
18 | CC(=O)Oc1cccc(C(=O)Nc2ccc3c(c2)-c2c(c(C(N)=O)nn2-c2cccc(F)c2)CC3)c1C | 1 to 10
19 | C[S+]([O-])c1ccc(-n2nc(C(N)=O)c3c2-c2cc(NC(=O)c4cc5c(cc4Cl)OCO5)ccc2CC3)cc1 (stereo not given) | ≤ 1
20 | NC(=O)c1nn(-c2ccc(S(N)(=O)=O)cc2)c2c1CCc1ccc(NS(=O)(=O)c3ccc(Br)cc3F)cc1-2 | 1 to 10
21 | CN1CCN(c2cc(C(=O)Nc3ccc4c(c3)-c3c(c(C(N)=O)nn3-c3ccc(F)cc3)CC4)c(Cl)cn2)CC1 | ≤ 1
22 | NC(=O)c1nn(-c2ccc(S(N)(=O)=O)cc2)c2c1CCc1ccc(NC(=O)c3ccc(Cl)cc3)cc1-2 | ≤ 1
23 | NC(=O)c1nn(-c2ccc(S(N)(=O)=O)cc2)c2c1CCc1ccc(NS(=O)(=O)c3cccc4cnccc34)cc1-2 | 1 to 10
24 | NC(=O)c1nn(-c2ccc3c(c2)OCO3)c2c1CCc1ccc(NC(=O)c3cc[n+]([O-])cc3)cc1-2 | 1 to 10

Row | SMILES | IC50 [µM]
25 | NC(=O)c1nn(-c2ccc3c(c2)OCO3)c2c1CCc1ccc(NC(=O)c3cccc(O)n3)cc1-2 | 1 to 10
26 | NC(=O)c1nn(-c2ccc(S(=O)(=O)N3CC=CC3)cc2)c2c1CCc1ccc(N)cc1-2 | 1 to 10
27 | CSc1ncc(Cl)c(C(=O)Nc2ccc3c(c2)-c2c(c(C(N)=O)nn2-c2ccc4c(c2)OCO4)CC3)n1 | ≤ 1
28 | NC(=O)c1nn(-c2cc(F)c(N)cc2F)c2c1CCc1ccc(NC(=O)c3ccncc3Cl)cc1-2 | ≤ 1
29 | NC(=O)c1nn(-c2ccc(-c3ccoc3)cc2)c2c1CCc1ccc(NC(=O)c3ccccc3Cl)cc1-2 | 1 to 10
30 | C[C@@H]1CN(c2cc(C(=O)Nc3ccc4c(c3)-c3c(c(C(N)=O)nn3-c3ccc(F)cc3)CC4)c(Cl)cn2)CCN1C | ≤ 1
31 | N#Cc1cccc(C(=O)Nc2ccc3c(c2)-c2c(c(C(N)=O)nn2-c2ccc(S(N)(=O)=O)cc2)CC3)c1 | ≤ 1
32 | NC(=O)c1nn(-c2ccc(S(N)(=O)=O)cc2)c2c1CCc1ccc(NC(=O)C3CCCC3)cc1-2 | 1 to 10
33 | NC(=O)c1nn(-c2ccc(S(N)(=O)=O)cc2)c2c1CCc1ccc(NC(=O)c3ccccc3C(F)(F)F)cc1-2 | ≤ 1
34 | NC(=O)c1nn(-c2ccc(S(N)(=O)=O)cc2)c2c1CCc1ccc(NS(=O)(=O)c3cccc(Br)c3)cc1-2 | 1 to 10
35 | NC(=O)c1nn(-c2ccc(F)cc2)c2c1CCc1ccc(NC(=O)c3cc(N4CCCNCC4)ncc3Cl)cc1-2 | ≤ 1
36 | CNC(=O)/C=C/c1ccc(-n2nc(C(N)=O)c3c2-c2cc(N)ccc2CC3)cc1 | 1 to 10
37 | C[S+]([O-])c1ccc(Cl)c(C(=O)Nc2ccc3c(c2)-c2c(c(C(N)=O)nn2-c2ccc(F)cc2)CC3)c1 (stereo not given) | ≤ 1
38 | Cc1ccc(S(=O)(=O)Nc2ccc3c(c2)-c2c(c(C(N)=O)nn2-c2ccc(S(N)(=O)=O)cc2)CC3)cc1 | 10 to 100
39 | NC(=O)c1nn(-c2ccc(S(N)(=O)=O)cc2)c2c1CCc1ccc(NS(=O)(=O)c3ccccc3)cc1-2 | 1 to 10
40 | NC(=O)c1nn(-c2ccc(S(N)(=O)=O)cc2)c2c1CCc1ccc(NS(=O)(=O)c3cccc4nonc34)cc1-2 | 1 to 10
41 | NCc1ccc(Cl)c(C(=O)Nc2ccc3c(c2)-c2c(c(C(N)=O)nn2-c2ccc4c(c2)OCO4)CC3)n1 | 1 to 10
42 | NC(=O)c1nn(-c2ccc(Br)cc2)c2c1CCc1ccc(N)cc1-2 | 1 to 10
43 | CCCS(=O)(=O)Nc1ccc2c(c1)-c1c(c(C(N)=O)nn1-c1ccc(S(N)(=O)=O)cc1)CC2 | 1 to 10
44 | CN(C)CCNS(=O)(=O)c1ccc(-n2nc(C(N)=O)c3c2-c2cc(NC(=O)c4ccccc4Cl)ccc2CC3)cc1 | ≤ 1
45 | N#Cc1cc(C(=O)Nc2ccc3c(c2)-c2c(c(C(N)=O)nn2-c2ccc4c(c2)OCO4)CC3)c(Cl)cn1 | ≤ 1
46 | C=CCN(CC=C)S(=O)(=O)c1ccc(-n2nc(C(N)=O)c3c2-c2cc(NS(C)(=O)=O)ccc2CC3)cc1 | 1 to 10
47 | C[S+]([O-])c1ccc(Cl)c(C(=O)Nc2ccc3c(c2)-c2c(c(C(N)=O)nn2-c2ccc(S(C)(=O)=O)cc2)CC3)c1 (stereo not given) | ≤ 1
48 | NC(=O)c1nn(-c2ccc(S(N)(=O)=O)cc2)c2c1CCc1ccc(NC(=O)Cc3ccccc3)cc1-2 | 1 to 10

Row | SMILES | IC50 [µM]
49 | COc1cccc(C(=O)Nc2ccc3c(c2)-c2c(c(C(N)=O)nn2-c2ccc(S(C)(=O)=O)cc2)CC3)c1 | 1 to 10
50 | C[S+]([O-])c1ccc(-n2nc(C(N)=O)c3c2-c2cc(NS(C)(=O)=O)ccc2CC3)cc1 (stereo not given) | 1 to 10
51 | C=CCN(CC=C)S(=O)(=O)c1ccc(-n2nc(C(N)=O)c3c2-c2cc(N)ccc2CC3)cc1 | 1 to 10
52 | NC(=O)c1nn(-c2ccc3c(c2)OCO3)c2c1CCc1ccc(NC(=O)c3cc(N4CCNCC4)ncc3Cl)cc1-2 | ≤ 1
53 | CCCS(=O)(=O)c1ccc(-n2nc(C(N)=O)c3c2-c2cc(NC(=O)c4cccnc4Cl)ccc2CC3)cc1 | 1 to 10
54 | CC1(C)OCC(COc2ccc(-n3nc(C(N)=O)c4c3-c3cc(NC(=O)c5ccc(S(C)(=O)=O)cc5Cl)ccc3CC4)cc2)O1 (stereo not given) | 1 to 10
55 | CN(C)CCNc1cc(C(=O)Nc2ccc3c(c2)-c2c(c(C(N)=O)nn2-c2ccc(F)cc2)CC3)c(Cl)cn1 | ≤ 1
56 | NC(=O)c1nn(-c2ccc(S(N)(=O)=O)cc2)c2c1CCc1ccc(NC(=O)c3ccccc3Br)cc1-2 | ≤ 1
57 | COc1ccc(C(=O)Nc2ccc3c(c2)-c2c(c(C(N)=O)nn2-c2ccc(S(N)(=O)=O)cc2)CC3)cc1OC | 1 to 10
58 | CN1CCN(c2cc(C(=O)Nc3ccc4c(c3)-c3c(c(C(N)=O)nn3-c3ccc(S(C)(=O)=O)cc3)CC4)c(Cl)cn2)CC1 | ≤ 1
59 | NC(=O)c1nn(-c2ccc(F)cc2)c2c1CCc1ccc(NC(=O)c3cc4c(cc3Cl)OCO4)cc1-2 | ≤ 1
60 | NC(=O)c1nn(-c2ccc(OC(F)(F)F)cc2)c2c1CCc1ccc(NC(=O)c3ccccc3Cl)cc1-2 | 1 to 10
61 | CN(C)CC(=O)Nc1ccc(C(=O)Nc2ccc3c(c2)-c2c(c(C(N)=O)nn2-c2ccc4c(c2)OCO4)CC3)c(Cl)c1 | 1 to 10
62 | CS(=O)(=O)c1ccc(-n2nc(C(N)=O)c3c2-c2cc(NC(=O)c4cn[nH]c4)ccc2CC3)cc1 | 1 to 10
63 | CS(=O)(=O)Nc1ccc2c(c1)-c1c(c(C(N)=O)nn1-c1ccccc1)CC2 | 1 to 10
64 | N#Cc1ccc(Cl)c(C(=O)Nc2ccc3c(c2)-c2c(c(C(N)=O)nn2-c2ccc4c(c2)OCO4)CC3)n1 | 1 to 10
65 | NC(=O)c1nn(-c2ccc3c(c2)OCO3)c2c1CCc1ccc(NC(=O)CNC3CCCCC3)cc1-2 | 1 to 10
66 | CN(C)C(=O)/C=C/c1ccc(-n2nc(C(N)=O)c3c2-c2cc(NC(=O)c4cccnc4Cl)ccc2CC3)cc1 | 1 to 10
67 | NC(=O)c1nn(-c2ccc(F)cc2)c2c1CCc1ccc(NC(=O)c3cc(CCN4CCOCC4)ncc3Cl)cc1-2 | ≤ 1
68 | CSc1ccccc1C(=O)Nc1ccc2c(c1)-c1c(c(C(N)=O)nn1-c1ccc(S(C)(=O)=O)cc1)CC2 | 1 to 10
69 | Cc1nc(S(=O)(=O)Nc2ccc3c(c2)-c2c(c(C(N)=O)nn2-c2ccc(S(N)(=O)=O)cc2)CC3)cn1C | 10 to 100
70 | C[C@@H](N)C(=O)Nc1ccc2c(c1)-c1c(c(C(N)=O)nn1-c1ccc(S(N)(=O)=O)cc1)CC2 | 1 to 10
